Molecular target: T1, hMC2 receptor (crude hMC2R membranes from CRE-bla-CHO-K1 cells stably expressing hMC2 receptor and hMRAP accessory protein) (Homo sapiens, UniProt Q01718)
T1 construct: crude membrane fractions
Test: hMC2 membrane binding assay ([125I]ACTH (1-39) Tyr23, SPA)
Settings: displacement of 0.2 nM [125I]ACTH (1-39) Tyr23 from hMC2R membranes, 1.5 hours at room temperature; read-out: MC2R binding potency
In short: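 Ki values come from non-linear regression of SPA scintillation counts, with compounds displacing [125I]ACTH(1-39) Tyr23. Membranes come from CRE-bla-CHO-K1 cells stably expressing hMC2 receptor together with hMRAP. They are preincubated with WGA-coated PVT SPA beads in 50 mM HEPES pH 7.4 with 0.20% BSA, Mg2+, Ca2+ and protease inhibitors.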

T1 sequence (Q01718 whole entry): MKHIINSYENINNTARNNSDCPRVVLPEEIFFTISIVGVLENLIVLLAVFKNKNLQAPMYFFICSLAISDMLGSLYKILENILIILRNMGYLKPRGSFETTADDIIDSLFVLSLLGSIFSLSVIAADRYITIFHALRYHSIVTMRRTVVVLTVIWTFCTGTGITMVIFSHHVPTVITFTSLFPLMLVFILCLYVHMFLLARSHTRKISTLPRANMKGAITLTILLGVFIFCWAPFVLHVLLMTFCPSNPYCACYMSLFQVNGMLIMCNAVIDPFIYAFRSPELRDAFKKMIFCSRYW
T1 sequence (Q8TCY5 whole entry partner): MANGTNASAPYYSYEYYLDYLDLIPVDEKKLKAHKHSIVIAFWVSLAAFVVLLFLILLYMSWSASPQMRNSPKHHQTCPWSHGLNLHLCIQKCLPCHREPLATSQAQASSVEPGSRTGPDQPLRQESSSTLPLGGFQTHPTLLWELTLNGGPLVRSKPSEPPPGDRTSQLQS

Row | Ki | SMILES
1 | < 0.01 µM | Cc1ccccc1-c1ccc(C2(C(=O)N[C@@H]3CCN(C)C3)CCN(c3ccc(C(F)(F)F)cc3C#N)CC2)cn1 [Compound 1-66, 1-[2-cyano-4-(trifluoromethyl)phenyl]-4-[6-(2-methylphenyl)pyridin-3-yl]-N-[(3R)-1-methylpyrrolidin-3-yl]piperidine-4-carboxamide]
2 | < 0.01 µM | CNCCNC(=O)C1(c2cnc(-c3cccnc3OC)c(F)c2)CCN(c2ccc(C(F)(F)F)cc2Cl)CC1 [Compound 1-303, 1-[2-chloro-4-(trifluoromethyl)phenyl]-4-{3-fluoro-2′-methoxy-[2,3′-bipyridin]-5-yl}-N-[2-(methylamino)ethyl]piperidine-4-carboxamide]
3 | < 0.01 µM | CCOc1ncccc1-c1ccc(C2(C(=O)NC[C@H](C)N)CCN(c3ccc(C(F)(F)F)cc3C#N)CC2)cn1 [Compound 1-16, N-[(2S)-2-aminopropyl]-1-[2-cyano-4-(trifluoromethyl)phenyl]-4-{2′-ethoxy-[2,3′-bipyridin]-5-yl}piperidine-4-carboxamide]
4 | < 0.01 µM | CCOc1ncccc1-c1ccc(C2(C(=O)NC[C@@H](C)N(C)C)CCN(c3ccc(C(F)(F)F)cc3C#N)CC2)cn1 [Compound 1-333, 1-[2-cyano-4-(trifluoromethyl)phenyl]-N-[(2R)-2-(dimethylamino)propyl]-4-{2′-ethoxy-[2,3′-bipyridin]-5-yl}piperidine-4-carboxamide]
5 | < 0.01 µM | CN1CC[C@H](NC(=O)C2(c3cnc(-c4cccn4C)c(F)c3)CCN(c3ccc(C(F)(F)F)cc3F)CC2)C1 [Compound 1-192, 1-[2-fluoro-4-(trifluoromethyl)phenyl]-4-[5-fluoro-6-(1-methyl-1H-pyrrol-2-yl)pyridin-3-yl]-N-[(3S)-1-methylpyrrolidin-3-yl]piperidine-4-carboxamide]
6 | < 0.01 µM | COc1ncccc1-c1ncc(C2(C(=O)N[C@@H]3CCN(C)C3)CCN(c3ccc(C(F)(F)F)cc3C#N)CC2)cc1F [Compound 1-131, 1-[2-cyano-4-(trifluoromethyl)phenyl]-4-{3-fluoro-2′-methoxy-[2,3′-bipyridin]-5-yl}-N-[(3R)-1-methylpyrrolidin-3-yl]piperidine-4-carboxamide]
7 | < 0.01 µM | CCc1ncccc1-c1ccc(C2(C(=O)N[C@H]3CCN(C)C3)CCN(c3ccc(C(F)(F)F)cc3Cl)CC2)cn1 [Compound 1-172, 1-[2-chloro-4-(trifluoromethyl)phenyl]-4-{2′-ethyl-[2,3′-bipyridin]-5-yl}-N-[(3S)-1-methylpyrrolidin-3-yl]piperidine-4-carboxamide]
8 | < 0.01 µM | CCOc1ncccc1-c1ccc(C2(C(=O)NC3CN(C)CC3O)CCN(c3ccc(C(F)(F)F)cc3C#N)CC2)cn1 (single isomer, unassigned) [Compound 1-46, 1-[2-cyano-4-(trifluoromethyl)phenyl]-4-{2′-ethoxy-[2,3′-bipyridin]-5-yl}-N-[(3R,4R)*-4-hydroxy-1-methylpyrrolidin-3-yl]piperidine-4-carboxamide]
9 | < 0.01 µM | CN(C)CCCNC(=O)C1(c2ccc(-c3cccn3C)nc2)CCN(c2ccc(C(F)(F)F)cc2C#N)CC1 [Compound 1-207, 1-[2-cyano-4-(trifluoromethyl)phenyl]-N-[3-(dimethylamino)propyl]-4-[6-(1-methyl-1H-pyrrol-2-yl)pyridin-3-yl]piperidine-4-carboxamide]
10 | < 0.01 µM | CN(C)CCNC(=O)C1(c2cnc(-c3cccn3C)c(F)c2)CCN(c2ccc(C(F)(F)F)cc2F)CC1 [Compound 1-304, N-[2-(dimethylamino)ethyl]-1-[2-fluoro-4-(trifluoromethyl)phenyl]-4-[5-fluoro-6-(1-methyl-1H-pyrrol-2-yl)pyridin-3-yl]piperidine-4-carboxamide]
11 | < 0.01 µM | CN(C)CCNC(=O)C1(c2ccc(-c3cccn3C)nc2)CCN(c2ccc(C(F)(F)F)cc2C#N)CC1 [Compound 1-216, 1-[2-cyano-4-(trifluoromethyl)phenyl]-N-[2-(dimethylamino)ethyl]-4-[6-(1-methyl-1H-pyrrol-2-yl)pyridin-3-yl]piperidine-4-carboxamide]
12 | 0.01 to 0.1 µM | CCOc1ncccc1-c1ccc(C2(NCCO)CCN(c3ccc(C(F)(F)F)cc3C#N)CC2)cn1 [Compound 2-14, 2-(4-{2′-ethoxy-[2,3′-bipyridin]-5-yl}-4-[(2-hydroxyethyl)amino]piperidin-1-yl)-5-(trifluoromethyl)benzonitrile]
13 | < 0.01 µM | CCOc1ncccc1-c1ccc(C2(C(=O)N[C@@H](C)CNC)CCN(c3ccc(Cl)cc3Cl)CC2)cn1 [Compound 1-322, 1-(2,4-dichlorophenyl)-4-{2′-ethoxy-[2,3′-bipyridin]-5-yl}-N-[(2S)-1-(methylamino)propan-2-yl]piperidine-4-carboxamide]
14 | < 0.01 µM | CN(C)[C@@H](CO)CNC(=O)C1(c2ccc(-c3cccn3C)nc2)CCN(c2ccc(C(F)(F)F)cc2C#N)CC1 [Compound 1-275, 1-[2-cyano-4-(trifluoromethyl)phenyl]-N-[(2R)-2-(dimethylamino)-3-hydroxypropyl]-4-[6-(1-methyl-1H-pyrrol-2-yl)pyridin-3-yl]piperidine-4-carboxamide]
15 | 0.01 to 0.1 µM | Cc1oncc1-c1ccc(C2(C(=O)N[C@@H]3CCN(C)C3)CCN(c3ccc(C(F)(F)F)cc3C#N)CC2)cn1 [Compound 1-157, 1-[2-cyano-4-(trifluoromethyl)phenyl]-4-[6-(5-methyl-1,2-oxazol-4-yl)pyridin-3-yl]-N-[(3R)-1-methylpyrrolidin-3-yl]piperidine-4-carboxamide]
16 | 0.01 to 0.1 µM | Cn1cccc1-c1ccc(C2(C(=O)NC34CCN(CC3)C4)CCN(c3ccc(C(F)(F)F)cc3C#N)CC2)cn1 [Compound 1-221, N-{1-azabicyclo[2.2.1]heptan-4-yl}-1-[2-cyano-4-(trifluoromethyl)phenyl]-4-[6-(1-methyl-1H-pyrrol-2-yl)pyridin-3-yl]piperidine-4-carboxamide]
17 | < 0.01 µM | CCOc1ccccc1-c1ccc(C2(C(=O)NCCNC)CCN(c3ccc(C(F)(F)F)cc3Cl)CC2)cn1 [Compound 1-230, 1-[2-chloro-4-(trifluoromethyl)phenyl]-4-[6-(2-ethoxyphenyl)pyridin-3-yl]-N-[2-(methylamino)ethyl]piperidine-4-carboxamide]
18 | < 0.01 µM | CCOc1ccccc1-c1ccc(C2(C(=O)NC3CN(C)C3)CCN(c3ccc(Cl)cc3C#N)CC2)nn1 [Compound 1-135, 1-(4-chloro-2-cyanophenyl)-4-[6-(2-ethoxyphenyl)pyridazin-3-yl]-N-(1-methylazetidin-3-yl)piperidine-4-carboxamide]
19 | 0.01 to 0.1 µM | CCOc1ncccc1-c1ccc(C2(NC(=O)C3CN(C)C3)CCN(c3ccc(C(F)(F)F)cc3C#N)CC2)cc1 [Compound 2-16, N-{1-[2-cyano-4-(trifluoromethyl)phenyl]-4-[4-(2-ethoxypyridin-3-yl)phenyl]piperidin-4-yl}-1-methylazetidine-3-carboxamide]
20 | < 0.01 µM | CCOc1ncccc1-c1ccc(C2(C(=O)N[C@H]3CCN(C)C3)CCN(c3ncc(C(F)(F)F)cc3C#N)CC2)cn1 [Compound 1-42, 1-[3-cyano-5-(trifluoromethyl)pyridin-2-yl]-4-{2′-ethoxy-[2,3′-bipyridin]-5-yl}-N-[(3S)-1-methylpyrrolidin-3-yl]piperidine-4-carboxamide]
21 | < 0.01 µM | CCOc1ncccc1-c1ccc(C2(C(=O)N[C@H]3CCN(C)C3)CCN(c3ccc(Cl)cc3C#N)CC2)nn1 [Compound 1-139, 1-(4-chloro-2-cyanophenyl)-4-[6-(2-ethoxypyridin-3-yl)pyridazin-3-yl]-N-[(3S)-1-methylpyrrolidin-3-yl]piperidine-4-carboxamide]
22 | < 0.01 µM | COc1ccccc1-c1ncc(C2(C(=O)NCCCN(C)C)CCN(c3ccc(C(F)(F)F)cc3C#N)CC2)cc1F [Compound 1-199, 1-[2-cyano-4-(trifluoromethyl)phenyl]-N-[3-(dimethylamino)propyl]-4-[5-fluoro-6-(2-methoxyphenyl)pyridin-3-yl]piperidine-4-carboxamide]
23 | < 0.01 µM | CCOc1ccccc1-c1ccc(C2(C(=O)N[C@H]3CCN(C)C3)CCN(c3ccc(C(F)(F)F)cc3C#N)CC2)cn1 [Compound 1-30, 1-[2-cyano-4-(trifluoromethyl)phenyl]-4-[6-(2-ethoxyphenyl)pyridin-3-yl]-N-[(3S)-1-methylpyrrolidin-3-yl]piperidine-4-carboxamide]
24 | 0.01 to 0.1 µM | Cn1cccc1-c1ccc(C2(C(=O)N[C@@H]3C[C@H]3N)CCN(c3ccc(C(F)(F)F)cc3C#N)CC2)cn1 (racemic) [Compound 1-259, rac-N-[(1R,2R)-2-aminocyclopropyl]-1-[2-cyano-4-(trifluoromethyl)phenyl]-4-[6-(1-methyl-1H-pyrrol-2-yl)pyridin-3-yl]piperidine-4-carboxamide]
25 | < 0.01 µM | COc1ncc(F)cc1-c1ncc(C2(C(=O)N[C@H]3CCN(C)C3)CCN(c3ccc(C(F)(F)F)cc3F)CC2)cc1F [Compound 1-210, 4-{3,5′-difluoro-2′-methoxy-[2,3′-bipyridin]-5-yl}-1-[2-fluoro-4-(trifluoromethyl)phenyl]-N-[(3S)-1-methylpyrrolidin-3-yl]piperidine-4-carboxamide]
26 | < 0.01 µM | COc1ncccc1-c1ccc(C2(C(=O)NCCN(C)C)CCN(c3ccc(C(F)(F)F)cc3Cl)CC2)cn1 [Compound 1-273, 1-[2-chloro-4-(trifluoromethyl)phenyl]-N-[2-(dimethylamino)ethyl]-4-{2′-methoxy-[2,3′-bipyridin]-5-yl}piperidine-4-carboxamide]
27 | < 0.01 µM | CN1CC[C@@H](OC(=O)NC2(c3ccc(-c4cccn4C)nc3)CCN(c3ccc(C(F)(F)F)cc3C#N)CC2)C1 [Compound 2-41, (3R)-1-methylpyrrolidin-3-yl N-{1-[2-cyano-4-(trifluoromethyl)phenyl]-4-[6-(1-methyl-1H-pyrrol-2-yl)pyridin-3-yl]piperidin-4-yl}carbamate]

— patent US12492181B2, “Gem-disubstituted piperidine melanocortin subtype-2 receptor (MC2R) antagonists and uses thereof” (Crinetics Pharmaceuticals, Inc., priority 2019, dated 2025)
